Assay results: US11834463B2, “High affinity macrocyclic FKB51-inhibitors for treatment of psychiatric disorders” (priority 2020, dated 2023)
Where two headings read alike, the source gives them in different places.

Key:
[1] = from COc1ccc(CC[C@H](OC(=O)[C@H]2CCCCN2C(=O)[C@H](c2cc(OC)c(OC)c(OCCCI)c2)C2CCCCC2)c2cccc(O)c2)cc1OC; ether bond; 18-membered ring; K2CO3 (2 equiv); MeCN; 0.3 mM
FKBP51FK1 = target: T1, FKBP51FK1 (Homo sapiens, UniProt Q13451); assay: biochemical
T1 sequence (Q13451 42-130 limits assumed): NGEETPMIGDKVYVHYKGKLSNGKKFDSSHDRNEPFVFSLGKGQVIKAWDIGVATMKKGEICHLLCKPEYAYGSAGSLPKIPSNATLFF
Description: (§1) All macrocyclic compounds were tested in a competitive fluorescence polarization assay for binding towards FKBP51 as well as the homologs FKBP12, FKBP12.6 and FKBP52 (Table 1).
(§2) Example 8: […] of the Macrocyclic FKBP51 Ligands by SPPS

FKBP12.6 = FKBP12.6 (Homo sapiens, UniProt P68106); assay: competitive fluorescence polarization assay, binding to FKBP12.6
Description: as §1, §2

FKBP12 = FKBP12 (Homo sapiens, UniProt P62942); assay: competitive fluorescence polarization assay, binding to FKBP12
Description: as §1, §2

[2] = Ki [nM] FKBP51FK1, Table 1, competitive Fluorescence Polarization Assay
[3] = Table 1, competitive Fluorescence Polarization Assay, read-out: Ki [nM] FKBP12.6
[4] = Table 1, competitive Fluorescence Polarization Assay, read-out: Ki [nM] FKBP12
[5] = affinity, same values as Table 2 FKBP51FK1

FKBP12.6, sequence (P68106 whole entry): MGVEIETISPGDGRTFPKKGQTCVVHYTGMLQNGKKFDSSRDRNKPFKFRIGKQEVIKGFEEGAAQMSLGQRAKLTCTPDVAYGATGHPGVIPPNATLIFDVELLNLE
FKBP12, sequence (P62942 whole entry): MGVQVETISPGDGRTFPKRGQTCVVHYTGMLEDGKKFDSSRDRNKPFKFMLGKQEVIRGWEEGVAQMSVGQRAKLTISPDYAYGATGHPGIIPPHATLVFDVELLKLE

Row | Compound | Ki (FKBP51FK1; [2]) | Ki (FKBP12.6; [3]) | Ki (FKBP12; [4]) | other results
1 | COc1ccc(CC[C@@H]2OC(=O)[C@H]3CCCCN3C(=O)[C@@H](C3CCCCC3)c3cc(OC)c(OC)c(c3)OCCCOc3cccc2c3)cc1OC |  |  |  | ring closure, yield after HPLC [1]: 26%
2 | COc1ccc(CC[C@H]2OC(=O)[C@@H]3CCCCN3C(=O)[C@@H](C3CCCCC3)C/C=C/COCCOc3cccc2c3)cc1OC |  |  |  | ring closure, isolated yield (from C=CCOCCOc1cccc([C@H](CCc2ccc(OC)c(OC)c2)OC(=O)[C@H]2CCCCN2C(=O)[C@H](CC=C)C2CCCCC2)c1, rcm bond, 18-membered ring, Grubbs II (0.1 eq), DCM, 0.5 mM, 30.0 °C, 2.5 h): 92%
3 | COc1ccc(CC[C@H]2OC(=O)[C@@H]3CCCCN3C(=O)[C@@H](C3CCCCC3)c3cc(OC)c(OC)c(c3)OCCOCC(=O)CCOc3cccc2c3)cc1OC [Compound 62] | 23 nM | 57 nM | 39 nM | 
4 | COc1ccc(CC[C@@H]2OC(=O)[C@H]3CCCCN3C(=O)[C@@H](C3CCCCC3)c3cc(OC)c(c(OC)c3)OCCCOc3cccc2c3)cc1OC |  |  |  | ring closure, isolated yield (from COc1ccc(CC[C@H](OC(=O)[C@H]2CCCCN2C(=O)[C@H](c2cc(OC)c(OCCCI)c(OC)c2)C2CCCCC2)c2cccc(O)c2)cc1OC, ether bond, 19-membered ring, K2CO3 (2 equiv), MeCN, 0.5 mM): 81%
5 | COc1ccc(CC[C@H]2OC(=O)[C@@H]3CCCCN3C(=O)[C@@H](C3CCCCC3)c3cc(OC)c(OC)c(c3)OCCCOCCCCOc3cccc2c3)cc1OC [Compound 46] | 80 nM | 116 nM | 449 nM | 
6 | COc1ccc(CC[C@H]2OC(=O)[C@@H]3CCCCN3C(=O)[C@@H](C3CCCCC3)c3cc(OC)c(c(OC)c3)OCCOCCCCOc3cccc2c3)cc1OC [Compound 41] | 118 nM | 230 nM | 449 nM | 
7 | COc1ccc(CC[C@H]2OC(=O)[C@@H]3CCCCN3C(=O)[C@@H](C3CCCCC3)c3cc(OC)c(c(OC)c3)OC/C=C/COc3cccc2c3)cc1OC [31-(E)] | 56 nM | 263 nM | 289 nM | 
8 | COc1ccc(CC[C@H]2OC(=O)[C@@H]3CCCCN3C(=O)[C@@H](C3CCCCC3)NC(=O)[C@@H]3CCCN3C(=O)COc3cccc2c3)cc1OC [Compound 92, (9S,12R,19S,22R)-12-cyclohexyl-22-[2-(3,4-dimethoxyphenyl)ethyl]-2,21-dioxa-5,11,14-triazatetracyclo[21.3.1.0^5,9.0^14,19]heptacosa-1(26),23(27),24-triene-4,10,13,20-tetrone] |  |  |  | affinity (in words) (FKBP51FK1): substantially reduced affinity; Ki (FKBP12.6; Table 2, read-out: FKBP12.6 Ki): > 80000 nM; Ki (FKBP12; Table 2, read-out: FKBP12 Ki): > 80000 nM
9 | COc1ccc(CC[C@H]2OC(=O)[C@@H]3CCCCN3C(=O)[C@@H](C3CCCCC3)c3cc(OC)c(OC)c(c3)OCCCOC/C=C/COc3cccc2c3)cc1OC [38-(E)] | 93 nM | 144 nM | 269 nM | 
10 | COc1ccc(CC[C@H]2OC(=O)[C@@H]3CCCCN3C(=O)[C@@H](C3CCCCC3)NC(=O)[C@H](C)NC(=O)COc3cccc2c3)cc1OC [Compound 91, (2R,5S,12R,15S)-12-cyclohexyl-2-[2-(3,4-dimethoxyphenyl)ethyl]-15-methyl-3,19-dioxa-10,13,16-triazatricyclo[18.3.1.0^5,10]tetracosa-1(24),20,22-triene-4,11,14,17-tetrone] |  |  |  | affinity (in words) (FKBP51FK1): bound more weakly; Ki (FKBP12.6; Table 2, read-out: FKBP12.6 Ki): > 80000 nM; Ki (FKBP12; Table 2, read-out: FKBP12 Ki): > 80000 nM
11 | COc1ccc(CC[C@H]2OC(=O)[C@@H]3CCCCN3C(=O)[C@@H](C3CCCCC3)NC(=O)CN(C)C(=O)COc3cccc2c3)cc1OC [Compound 89, (2R,5S,12R)-12-cyclohexyl-2-[2-(3,4-dimethoxyphenyl)ethyl]-16-methyl-3,19-dioxa-10,13,16-triazatricyclo[18.3.1.0^5,10]tetracosa-1(24),20,22-triene-4,11,14,17-tetrone] |  |  |  | Ki (FKBP51FK1; [5]): 3100 nM; Ki (FKBP12.6; Table 2, read-out: FKBP12.6 Ki): > 80000 nM; Ki (FKBP12; Table 2, read-out: FKBP12 Ki): > 80000 nM
12 | COc1ccc(CC[C@H]2OC(=O)[C@@H]3CCCCN3C(=O)[C@@H](C3CCCCC3)NC(=O)C3(CCC3)NC(=O)COc3cccc2c3)cc1OC [Compound 87, (2′R,5'S,12′R)-12′-cyclohexyl-2′-[2-(3,4-dimethoxyphenyl)ethyl]-3′, 19′-dioxa-10′, 13′, 16′-triazaspiro[cyclobutane-1,15′-tricyclo[18.3.1.0^5,10° ]tetracosane]-1′(24′),20′, 22′-triene-4′, 11′, 14′, 17′-tetrone] |  |  |  | Ki (FKBP51FK1; [5]): 400 nM; Ki (FKBP12.6; Table 2, read-out: FKBP12.6 Ki): > 80000 nM; Ki (FKBP12; Table 2, read-out: FKBP12 Ki): > 80000 nM
13 | COc1ccc(CCC2OC(=O)C3CCCCN3C(=O)C(C3CCCCC3)c3cc(OC)c(OC)c(c3)OC/C=C\COc3cccc2c3)cc1OC (stereo not drawn) [35-(Z)] | 93 nM | 192 nM | 173 nM | 
14 | COc1ccc(CC[C@H]2OC(=O)[C@@H]3CCCCN3C(=O)[C@@H](C3CCCCC3)c3cc(OC)c(OC)c(c3)OCCCOc3cccc2c3)cc1OC [Compound 58] | 54 nM | 87 nM | 401 nM | 
15 | COc1ccc(CC[C@H]2OC(=O)[C@@H]3CCCCN3C(=O)[C@@H](C3CCCCC3)NC(=O)C3(CCCC3)NC(=O)COc3cccc2c3)cc1OC [Compound 88, (2′R,5'S,12′R)-12′-cyclohexyl-2′-[2-(3,4-dimethoxyphenyl)ethyl]-3′, 19′-dioxa-10′, 13′, 16′-triazaspiro[cyclopentane-1,15′-tricyclo[18.3.1.0^5,10]tetracosane]-1′(24′),20′, 22′-triene-4′, 11′, 14′, 17′-tetrone] |  |  |  | Ki (FKBP51FK1; [5]): 1300 nM; Ki (FKBP12.6; Table 2, read-out: FKBP12.6 Ki): > 80000 nM; Ki (FKBP12; Table 2, read-out: FKBP12 Ki): > 80000 nM
16 | COc1ccc(CC[C@@H](OC(=O)[C@@H]2CCCCN2C(=O)[C@H](c2cc(OC)c(OC)c(OC)c2)C2CCCCC2)c2cccc(OCC(=O)O)c2)cc1OC [SAFit1, reference compound] |  |  |  | Ki (FKBP51FK1; read-out: FKBP51FK1 Ki, Table 2, [a] standard error from three, [c] error from two independent measurements): 4 ± 1 nM; Ki (FKBP12.6; Table 2, read-out: FKBP12.6 Ki): 19 ± 2 nM; Ki (FKBP12; Table 2, read-out: FKBP12 Ki): 163 ± 9 nM
17 | COc1ccc(CC[C@H]2OC(=O)[C@@H]3CCCCN3C(=O)[C@@H](C3CCCCC3)NC(=O)C(C)(C)NC(=O)COc3cccc2c3)cc1OC [Compound 85, (2R,5S,12R)-12-cyclohexyl-2-[2-(3,4-dimethoxyphenyl)ethyl]-15,15-dimethyl-3,19-dioxa-10,13,16-triazatricyclo[18.3.1.0^5,10]tetracosa-1(24),20,22-triene-4,11,14,17-tetrone] |  |  |  | Ki (FKBP51FK1; [5]): 290 nM; Ki (FKBP12.6; Table 2, read-out: FKBP12.6 Ki): > 80000 nM; Ki (FKBP12; Table 2, read-out: FKBP12 Ki): > 80000 nM
18 | COc1ccc(CC[C@H]2OC(=O)[C@@H]3CCCCN3C(=O)[C@@H](C3CCCCC3)NC(=O)C(C)(C)NC(=O)COc3cc(O)cc2c3)cc1OC [Compound 103, (2R,5S,12R)-12-cyclohexyl-2-[2-(3,4-dimethoxyphenyl)ethyl]-22-hydroxy-15,15-dimethyl-3,19-dioxa-10,13,16-triazatricyclo[18.3.1.0^5,10]tetracosa-1(24),20,22-triene-4,11,14,17-tetrone] |  |  |  | affinity (in words) (FKBP51FK1): bound similarly to the glycine derivative 83; Ki (FKBP51FK1; FKBP51FK1 Ki [μM], Table 2, [a] standard error from three, [c] error from two independent measurements): 370 nM; ring closure, isolated yield (from H-Aib-dChg-Pip-[O-(R)-CH(CH2CH2-3,4-dimethoxyphenyl)-C6H3(O-resin)-OCH2CO]-OH?, amide bond, 17-membered ring, resin, with chain assembly): 20%

The next lines start with results.

Row | Ki (FKBP51FK1; [2]) | Ki (FKBP12.6; [3]) | Ki (FKBP12; [4]) | Compound | other results
19 | 48 nM | 84 nM | 123 nM | COc1ccc(CC[C@H]2OC(=O)[C@@H]3CCCCN3C(=O)[C@@H](C3CCCCC3)c3cc(OC)c(OC)c(c3)OCCOCCCCOc3cccc2c3)cc1OC [Compound 45] | 
20 | 43 nM | 65 nM | 88 nM | COc1ccc(CC[C@H]2OC(=O)[C@@H]3CCCCN3C(=O)[C@@H](C3CCCCC3)c3cc(OC)c(OC)c(c3)OCCCCCOc3cccc2c3)cc1OC [Compound 44] | 
21 | 11 nM | 83 nM | 97 nM | COc1ccc(CC[C@H]2OC(=O)[C@@H]3CCCCN3C(=O)[C@@H](C3CCCCC3)c3cc(OC)c(c(OC)c3)OCC(O)C(O)COc3cccc2c3)cc1OC (mixture of isomers) [Compound 63] | 
22 | 13 nM | 17 nM | 34 nM | COc1ccc(CCC2OC(=O)C3CCCCN3C(=O)C(C3CCCCC3)c3cc(OC)c(OC)c(c3)OCC(O)C(O)COc3cccc2c3)cc1OC (single isomer, unassigned) [Compound 64b] | 
23 | 77 nM | 96 nM | 118 nM | COc1ccc(CC[C@H]2OC(=O)[C@@H]3CCCCN3C(=O)[C@@H](C3CCCCC3)c3cc(OC)c(OC)c(c3)OCC/C=C\COc3cccc2c3)cc1OC [36-(Z)] | 
24 | 102 nM | 198 nM | 204 nM | COc1ccc(CC[C@H]2OC(=O)[C@@H]3CCCCN3C(=O)[C@@H](C3CCCCC3)c3cc(OC)c(c(OC)c3)OCCCCCOc3cccc2c3)cc1OC [Compound 40] | 
25 | 4 nM | 10 nM | 23 nM | COc1ccc(CCC2OC(=O)C3CCCCN3C(=O)C(C3CCCCC3)c3cc(OC)c(OC)c(c3)OCC(O)C(O)COc3cccc2c3)cc1OC (single isomer, unassigned) [Compound 64a] | 
26 | 94 nM | 199 nM | 222 nM | COc1cccc([C@@H](CCc2ccc(OC)c(OC)c2)OC(=O)[C@@H]2CCCCN2C(=O)[C@H](c2cc(OC)c(OC)c(OC)c2)C2CCCCC2)c1 [Compound A1, reference compound] | 
27 | 53 nM | 191 nM | 159 nM | COc1ccc(CC[C@H]2OC(=O)[C@@H]3CCCCN3C(=O)[C@@H](C3CCCCC3)c3cc(OC)c(c(OC)c3)OCCCCOc3cccc2c3)cc1OC [Compound 39] | 
